{
  "source": "paper PMC5259734",
  "about": "“Identification of Key Residues for Urate Specific Transport in Human Glucose Transporter 9 (hSLC2A9)” (Scientific Reports, 2017)",
  "format_in_all_cases": "cell-based",
  "key": {"[1]": {"target": "T1, hSLC2A9b (human glucose transporter 9) (Homo sapiens, UniProt Q9NRM0)", "T1 construct": "gene SLC2A9; hSLC2A9b isoform (shorter N-terminus), WT", "T1 sequence (Q9NRM0 1-511 isoform Q9NRM0-2 limits assumed)": "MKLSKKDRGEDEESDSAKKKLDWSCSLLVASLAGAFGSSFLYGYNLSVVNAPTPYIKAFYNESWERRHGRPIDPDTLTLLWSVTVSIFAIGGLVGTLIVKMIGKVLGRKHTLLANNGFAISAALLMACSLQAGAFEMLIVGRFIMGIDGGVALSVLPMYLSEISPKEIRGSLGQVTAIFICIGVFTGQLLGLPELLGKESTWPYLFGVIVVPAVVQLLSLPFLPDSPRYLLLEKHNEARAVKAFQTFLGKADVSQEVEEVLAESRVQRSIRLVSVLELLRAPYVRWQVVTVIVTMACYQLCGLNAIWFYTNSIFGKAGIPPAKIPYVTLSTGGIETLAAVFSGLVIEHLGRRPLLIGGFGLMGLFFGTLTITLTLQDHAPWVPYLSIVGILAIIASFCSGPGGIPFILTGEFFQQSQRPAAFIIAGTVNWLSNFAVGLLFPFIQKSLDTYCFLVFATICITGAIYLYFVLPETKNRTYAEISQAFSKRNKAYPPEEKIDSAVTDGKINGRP", "test": "[…] urate flux kinetics and TEVC in Xenopus oocytes"}, "[2]": {"target": "T1, hSLC2A9b (human glucose transporter 9)", "test": "[…] fructose uptake in Xenopus oocytes"}, "[3]": {"target": "T1, hSLC2A9b (human glucose transporter 9)", "test": "TEVC inhibition of urate-induced current and […] urate flux in Xenopus oocytes"}},
  "data": [
    {"smiles": "O=c1[nH]c(=O)c2[nH]c(=O)[nH]c2[nH]1", "note": "[urate]", "values": [
      {"measurement": "14C urate flux kinetics and TEVC in Xenopus oocytes", "setting": "[1]", "result": "both WT hSLC2A9b and its cysteine mutants exhibited Michaelis-Menten type kinetics for urate transport"}
    ]},
    {"smiles": "OC[C@H]1OC(O)(CO)[C@@H](O)[C@@H]1O", "note": "(stereo partly drawn) [fructose]", "values": [
      {"measurement": "14C fructose uptake in Xenopus oocytes", "setting": "[2]", "result": "all mutants transported fructose similarly as WT hSLC2A9b"}
    ]},
    {"smiles": "O=S(=O)(O)c1cc[c]([Hg][Cl])cc1", "note": "[pCMBS]", "values": [
      {"measurement": "IC50", "setting": "[3]", "result": 52.5, "unit": "µM"}
    ]}
  ]
}
